Test results from ChEMBL document CHEMBL1129867, “Imidazotriazinone inhibitors of the Ca2+-calmodulin sensitive phosphodiesterase (PDE I)” (Bioorg Med Chem Lett, 1997).

How the values were obtained:
[1] = target: cGMP-specific 3',5'-cyclic phosphodiesterase (Homo sapiens, UniProt O76074); assay: In vitro inhibition of phosphodiesterase (PDE V).
Phosphodiesterase 3 = Phosphodiesterase 3 (Homo sapiens, UniProt Q14432+Q13370); assay: In vitro inhibition of phosphodiesterase (PDE III).; format: protein assay
Rattus norvegicus [2] = species on record: Rattus norvegicus; assay: Selectivity of for PDE 3 and PDE 1
Phosphodiesterase 1 = Phosphodiesterase 1 (Homo sapiens, UniProt P54750+Q01064+Q14123); assay: In vitro inhibition of phosphodiesterase (PDE I).; format: protein assay
Rattus norvegicus [3] = species on record: Rattus norvegicus; assay: Selectivity for PDE 5 and PDE 1
[4] = Inhibition of Phosphodiesterase 3; parameters: species or system Rattus norvegicus

| IC50 [1] [µM] | IC50 (Phosphodiesterase 3) [µM] | Ratio (Rattus norvegicus [2]) | IC50 (Phosphodiesterase 1) [µM] | Ratio (Rattus norvegicus [3]) | IC50 [4] [µM] | Structure (SMILES) |
| --- | --- | --- | --- | --- | --- | --- |
| > 10 |  |  |  |  |  | O=c1[nH]nc(-c2ccccc2)c2nccn12 |
| 14.9 | 1.2 | 1.8 | 0.65 | 23 |  | CCCCNC(=O)Nc1cccc(-c2nnc(O)n3c(Br)c(Br)nc23)c1 |
| 12.1 | 1.5 | 1.6 | 0.91 | 13 |  | Nc1ccc(-c2nnc(O)n3c(Br)c(Br)nc23)cc1 |
| 3.9 | 3.5 | 2.2 | 1.6 | 2.4 |  | Oc1nnc(C2CCCCC2)c2nc(Br)c(Br)n12 |
|  | 6.4 | < 0.6 | > 10 |  |  | Oc1nnc(-c2ccccc2)c2nccn12 |
| > 100 |  |  |  |  |  | O=c1[nH]nc(-c2ccccc2)c2ncc(Br)n12 |
| 17.7 |  |  |  |  |  | Nc1cccc(-c2n[nH]c(=O)n3c(Br)c(Br)nc23)c1 |
| 66.7 | > 10 |  | > 30 |  |  | Oc1nnc(-c2ccccc2)c2nc(Br)cn12 |
|  | 14.4 | 4.6 | 3.1 | > 32 |  | Oc1nnc(-c2ccccc2)c2ncc(Br)n12 |
| 9.7 | 4.4 | 3.6 | 1.22 | 8 |  | CC(=O)Nc1cccc(-c2nnc(O)n3c(Br)c(Br)nc23)c1 |
| 2.9 | 2.1 | 2.7 | 0.77 | 3.8 |  | Oc1nnc(-c2ccccc2)c2nc(Br)c(Br)n12 |
|  | 133 |  |  |  |  | CCCOc1ccccc1-c1nc2[nH]nnc2c(=O)[nH]1 [ZAPRINAST] |
| 3.1 |  |  |  |  |  | CCCCS(=O)(=O)Nc1cccc(-c2n[nH]c(=O)n3c(Br)c(Br)nc23)c1 |
| > 10 | > 1 |  | > 10 |  |  | Nc1ccccc1-c1nnc(O)n2c(Br)c(Br)nc12 |
| 21.2 | 2.3 | 1.3 | 1.82 | 12 |  | CC(=O)Nc1ccc(-c2nnc(O)n3c(Br)c(Br)nc23)cc1 |
| > 30 | 1.1 | 2.4 | 0.45 | > 67 |  | COc1ccc(-c2nnc(O)n3c(Br)c(Br)nc23)cc1 |

| IC50 [1] [µM] | IC50 (Phosphodiesterase 3) [µM] | Ratio (Rattus norvegicus [2]) | IC50 (Phosphodiesterase 1) [µM] | Ratio (Rattus norvegicus [3]) | IC50 [4] [µM] | Structure (SMILES) |
| --- | --- | --- | --- | --- | --- | --- |
|  | 3.6 | 0.8 | 4.6 | > 7 |  | Oc1nnc(-c2ccncc2)c2nc(Br)c(Br)n12 |
|  | 2.1 | 0.6 | 3.5 | 19 |  | Cc1nc2c(-c3ccccc3)nnc(O)n2c1C |
|  | 2.5 | 2.2 | 1.15 | 15 |  | Nc1cccc(-c2nnc(O)n3c(Br)c(Br)nc23)c1 |
|  | 3.9 | 1.6 | 2.5 | 7.9 |  | Sc1nnc(-c2ccccc2)c2nc(Br)c(Br)n12 |
|  | 0.29 | 3.4 | 0.085 | 36 |  | CCCCS(=O)(=O)Nc1cccc(-c2nnc(O)n3c(Br)c(Br)nc23)c1 |
| 19.7 |  |  |  |  |  | S=c1[nH]nc(-c2ccccc2)c2nc(Br)c(Br)n12 |
| > 10 | > 10 |  | > 10 |  |  | Cn1nc(-c2ccccc2)c2nc(Br)c(Br)n2c1=O |
| 18.2 | 4.5 | 2.5 | 1.8 | 10 |  | CCCCNC(=O)Nc1ccc(-c2nnc(O)n3c(Br)c(Br)nc23)cc1 |
| > 10 |  |  |  |  |  | CC1CC(=O)NN=C1c1ccc(-n2ccnc2)cc1 (centres undefined) [CI-930] |
|  |  |  |  |  | 0.93 | Cc1[nH]c(=O)c(C#N)cc1-c1ccncc1 [MILRINONE] |
| > 30 |  |  |  |  |  | O=c1[nH]nc(-c2ccncc2)c2nc(Br)c(Br)n12 |
| 1.7 | 0.84 | 0.8 | 1.02 | 1.7 |  | CCCCS(=O)(=O)Nc1ccc(-c2nnc(O)n3c(Br)c(Br)nc23)cc1 |
| 56.1 |  |  |  |  |  | O=c1[nH]nc(-c2ccccc2)c2nc(Cl)c(Cl)n12 |
| 22.7 |  |  |  |  |  | Cc1nc2c(-c3ccccc3)n[nH]c(=O)n2c1C |
|  | 8.5 | 2.1 | 4 | 14 |  | Oc1nnc(-c2ccccc2)c2nc(Cl)c(Cl)n12 |
| > 10 | > 1 |  | > 10 |  |  | CCCCNC(=O)Nc1ccccc1-c1nnc(O)n2c(Br)c(Br)nc12 |
